Measured values from a melting point compilation (Tetko et al.).

SMILES	melting point [°C]
Cc1cc(-c2cc(C(=O)O)c3c(C)noc3n2)c(C)o1	266 to 268
N#Cc1c(F)cccc1OC(F)F	29 to 31
O=C(CCl)Nc1cccc(CSc2ccccn2)c1	90 to 92
C#CCNC(=O)Nc1ccccc1	133 to 135
NS(=O)(=O)C1CCCCC1	91 to 93
O=C(O)c1ccccc1NS(=O)(=O)c1cccc([N+](=O)[O-])c1	185 to 187
COc1ncnc(Cl)c1N	70 to 72
CC(C)(Oc1ccc(F)cc1)C(=O)O	68 to 70
O=C(O)C1CCCN(S(=O)(=O)c2ccc([N+](=O)[O-])cc2)C1 (stereo not drawn)	221 to 223
O=C(O)c1ccnc(OCc2ccccc2)c1	171 to 173
CC(=NO)c1ccc(S(=O)(=O)N(C)C)cc1	108 to 110
COC(=O)c1cc([N+](=O)[O-])cc([N+](=O)[O-])c1F	67 to 69
O=C1C=CC(=O)N1c1ccc(F)c(Cl)c1	159 to 161
Cc1c(C(=O)O)nnn1-c1ccc(OC(C)C)cc1	159 to 161
Nc1c(C(=O)O)cc([N+](=O)[O-])cc1[N+](=O)[O-]	266 to 268
NC(=S)Cc1cn2cc(Cl)cc(Cl)c2n1	189 to 191
COc1cc(C=O)ccc1OC(=O)OC(C)(C)C	89 to 91
Fc1ccc(Br)c(-c2nn[nH]n2)c1	193 to 195
N#CCC(=O)c1cc(Cl)cc(Cl)c1	139 to 141
Nc1cccc(N2CCCNC2=O)c1	229 to 231
O=C(O)c1ccc(-c2cccc(C(F)(F)F)c2)cc1F	208 to 210
O=C(O)c1noc(-c2cc(F)ccc2F)n1	119 to 121
CN(C)/C=C(/C#N)C(N)=O	166 to 168
Nc1cccc(CN2CCC(CO)CC2)c1	89 to 91
Clc1ccc(SCc2nc(Cl)c3c4c(sc3n2)CCC4)cc1	71 to 75

SMILES	melting point [°C]
O=[N+]([O-])c1ccc2c(c1)CCCN2	155 to 157
Cc1onc(-c2cccc(Br)c2)c1C(=O)O	169 to 171
Nc1nc(-c2cccs2)ns1	163 to 165
O=C1NC(=O)C2(CCNC2)N1 (stereo not drawn)	201 to 203
O=C1NCCCC1Br (stereo not drawn)	49 to 51
COc1ccc(-c2nnc(S)o2)cc1OC	251 to 253
COc1ccccc1CCNC(=O)CCl	78 to 80
O=S(=O)(F)c1ccc2[nH]ncc2c1	175 to 177
CC(C)(C)C(N)=NO	93 to 95
CCOC(=O)/C(C#N)=C/Nc1ccc(Br)cc1	149 to 151
COC(=O)c1ccc(CBr)cc1OC	44 to 46
Clc1nccc(N2CCOCC2)n1	111 to 113
O=C(O)CCc1ncc(-c2ccccc2Br)o1	180 to 182
O=C(O)c1cc([N+](=O)[O-])ccc1Sc1nnnn1-c1ccccc1	218 to 220
CC(=O)NC1CCCNC1 (stereo not drawn)	65 to 67
CN1CCC(n2ncc3cc(Br)cnc32)CC1	120 to 122
Cc1cccc(Cn2[nH]ccc2=NC(=O)CCl)c1	88 to 90
ClCc1ncn(-c2ccccc2)n1	83 to 85
Cc1cc(-c2nnn[nH]2)ccc1F	109 to 111
Cc1cc(C(=O)O)cc(S(C)(=O)=O)c1F	229 to 231
CC(O)CS(=O)(=O)c1ccccc1 (stereo not drawn)	46 to 48
O=C(O)Cc1csc(-c2c(Cl)cccc2Cl)n1	142 to 144
CCOC(=O)c1cnc2c(OC)cc(OC)cc2c1Cl	148 to 150
COc1cc([N+](=O)[O-])ccc1NC(=O)CCCl	144 to 146
Cc1cncc(-n2ccnc2)c1	88 to 90

SMILES	melting point [°C]
CC(C)(C)n1c(N)nc2ccccc21	158 to 160
O=C(Nc1ccccc1)Nc1ccc(C(=O)O)cc1	260 to 262
CCn1nc(C(F)(F)F)c(C(=O)O)c1C(F)(F)F	89 to 91
CNCC1CCN(CC(O)c2ccccc2)CC1 (stereo not drawn)	47 to 49
N#Cc1ccc(-c2cccs2)[nH]c1=O	301 to 303
Cc1ccc(S(=O)(=O)N2CC(Cc3cccc(F)c3)C2)cc1	57 to 59
O=Cc1nc(-c2ccccc2)cs1	61 to 63
O=C(O)CCS(=O)c1ccc2c(c1)OCCCO2 (stereo not drawn)	114 to 116
Cc1ccccc1-c1noc(CC#N)n1	79 to 83
CNCC1CCN(c2ccncc2)CC1	65 to 67
Nc1ncn(Cc2ccccn2)n1	113 to 115
NC(=NO)c1ccc(Oc2ccccc2)nc1	159 to 161
CC(=O)N(C)c1ccc(S(=O)(=O)Cl)cc1	133 to 135
O=C(O)c1ccccc1OCc1cscn1	117 to 121
Oc1ccc(-n2cnc3ccccc32)cc1	278 to 280
CC(=O)N(C)c1ccccc1N	146 to 148
CN1CCN(c2cccc(Cl)c2C=O)CC1	80 to 82
CC(C)N1CCCC(Br)C1=O (stereo not drawn)	52 to 54
O=C(O)c1cc(Cl)ccc1NS(=O)(=O)c1ccccc1	184 to 186
Nc1nc(-c2ccc(O)cc2)n[nH]1	268 to 270
COCCCn1cnnc1S	161 to 163
CCN(C1CC1)S(=O)(=O)c1c(C)n[nH]c1C	97 to 99
O=C(O)c1ccc(Cl)c(I)c1	212 to 214
